Experiment [1] addresses Norepinephrine transporter (Rattus norvegicus, UniProt Q9JIA2).
For experiment [2], the target named is Sodium-dependent serotonin transporter (Rattus norvegicus, UniProt P31652).
Experiment [3] has as its target Sodium-dependent dopamine transporter (Rattus norvegicus, UniProt P23977).

Several values for one entry are separate records, joined by “and”; a condition that tells them apart may be missing. Equal entries are not always repeated.

Sequence of Sodium-dependent dopamine transporter (P23977 whole entry): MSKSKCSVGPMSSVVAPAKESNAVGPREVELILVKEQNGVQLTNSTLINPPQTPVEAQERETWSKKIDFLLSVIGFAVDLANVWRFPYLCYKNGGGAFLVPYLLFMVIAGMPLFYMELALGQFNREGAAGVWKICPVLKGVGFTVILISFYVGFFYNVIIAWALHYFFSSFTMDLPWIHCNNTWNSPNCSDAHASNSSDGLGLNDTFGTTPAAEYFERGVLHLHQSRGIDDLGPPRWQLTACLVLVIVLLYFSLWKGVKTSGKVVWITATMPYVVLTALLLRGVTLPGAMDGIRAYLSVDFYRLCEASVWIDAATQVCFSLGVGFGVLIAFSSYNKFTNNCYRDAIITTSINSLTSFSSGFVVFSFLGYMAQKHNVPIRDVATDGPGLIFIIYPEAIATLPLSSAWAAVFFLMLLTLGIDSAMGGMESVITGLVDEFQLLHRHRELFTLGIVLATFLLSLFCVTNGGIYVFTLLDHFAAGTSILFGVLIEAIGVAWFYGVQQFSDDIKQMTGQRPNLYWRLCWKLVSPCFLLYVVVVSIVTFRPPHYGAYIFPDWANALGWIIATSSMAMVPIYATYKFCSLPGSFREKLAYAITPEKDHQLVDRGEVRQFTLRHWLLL
Sequence of Sodium-dependent serotonin transporter (P31652 whole entry): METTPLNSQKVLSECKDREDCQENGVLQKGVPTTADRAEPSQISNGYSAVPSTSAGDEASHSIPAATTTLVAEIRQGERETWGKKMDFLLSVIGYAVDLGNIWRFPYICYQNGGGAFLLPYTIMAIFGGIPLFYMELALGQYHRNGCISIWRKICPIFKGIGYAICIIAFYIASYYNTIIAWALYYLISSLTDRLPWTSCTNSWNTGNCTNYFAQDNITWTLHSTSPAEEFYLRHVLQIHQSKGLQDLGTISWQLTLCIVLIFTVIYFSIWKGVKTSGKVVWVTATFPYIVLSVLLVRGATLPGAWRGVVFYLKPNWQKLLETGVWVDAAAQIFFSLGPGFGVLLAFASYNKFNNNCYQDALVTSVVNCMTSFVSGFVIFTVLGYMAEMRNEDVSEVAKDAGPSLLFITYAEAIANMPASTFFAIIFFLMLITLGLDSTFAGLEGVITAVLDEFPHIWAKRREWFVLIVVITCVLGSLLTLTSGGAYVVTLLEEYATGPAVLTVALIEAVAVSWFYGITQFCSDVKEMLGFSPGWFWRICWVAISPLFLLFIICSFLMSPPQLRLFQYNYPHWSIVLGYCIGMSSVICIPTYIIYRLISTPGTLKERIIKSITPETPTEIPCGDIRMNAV

Broadly, the Ki is a measure of affinity in units of concentration, obtained from inhibition or displacement. Lower therefore signals higher affinity. In experiment [1], `C[C@H](N)Cc1ccccc1` [beta-aminopropylbenzene] showed a Ki of 38.9 nM.

As for `NCCc1ccc(O)c(O)c1`, the Ki in experiment [1] stood at 40.3 nM; in experiment [2], 6490 nM.

In the case of `CN[C@@H](C)Cc1ccc2c(c1)OCO2` [DL-(3,4-Methylenedioxy)methamphetamine], the Ki in experiment [1] turned out to be 462 nM; in experiment [2], 238 nM; in experiment [3] it was 1570 nM.

As to `NCCc1ccc(O)cc1`, the Ki came out at 72.5 nM in experiment [1], 1560 nM in experiment [2] and 106 nM in experiment [3].

`COC(=O)[C@H]1[C@@H](c2ccc(I)cc2)C[C@@H]2CC[C@H]1N2C` [RTI 55, (exo,exo)-isomer, Iodine (125) labeled]: the results for the Ki in experiment [1], in experiment [2] and in experiment [3] were 5.89 nM, 1 nM and 0.83 nM, respectively.

`CCNC(C)Cc1cccc(C(F)(F)F)c1` (stereo not drawn) [NSC_3337] showed a Ki in experiment [3] of more than 10000 nM.

Regarding `c1ccc(CCCN2CCN(CCOC(c3ccccc3)c3ccccc3)CC2)cc1` [GBR-12935], the Ki in experiment [1] was 277 nM.

As to `CN[C@@H](C)[C@H](O)c1ccccc1` [Ephedrine,(-)], the inhibition constant Ki in experiment [1] was 225 nM; in experiment [2] it was more than 10000 nM; in experiment [3] it was 4400 nM.

For `CN1[C@H]2CC[C@@H]1[C@@H](C(=O)N1CCCC1)[C@@H](c1ccc(I)cc1)C2` [RTI-229], the Ki in experiment [1] is 19.5 nM; in experiment [2], 362 nM.

Consider `CC(C)(N)Cc1ccc(Cl)cc1` [CAS_461-78-9], for which the Ki in experiment [1] came to 451 nM; in experiment [2], 338 nM; in experiment [3], 3940 nM.

Regarding `COC(=O)C1C2CC[C@H](C[C@@H]1c1ccc(N)cc1)N2C` (stereo partly drawn) [(3S,8R)-3-(4-Amino-phenyl)-8-methyl-8-aza-bicyclo[3.2.1]octane-2-carboxylic acid methyl ester], the Ki in experiment [3] was determined as 2.15 nM.

As for `NCC(O)c1ccc(O)c(O)c1` (stereo not drawn) [Noradrenaline,(+)], the values for the Ki in experiment [1], in experiment [2] and in experiment [3] were 63.9 nM, more than 10000 nM and 357 nM, respectively.

As to `O[C@]1(c2ccc(Cl)cc2)c2ccccc2C2=NCCN21` [Mazanor], the Ki in experiment [1] amounted to 2.88 nM; in experiment [2], 272 nM; in experiment [3], 25.9 nM.

For the compound `NC1=NCC(c2ccccc2)O1` (stereo not drawn) [CAS_2207-50-3], the Ki was 54.5 nM in experiment [1], 1240 nM in experiment [2] and 216 nM in experiment [3].

For the compound `CN[C@@H](C)Cc1ccccc1` [METHAMPHETAMINE (+)], in experiment [1], the Ki was 48 nM and 234 nM.

As to `CC(C)(N)Cc1ccccc1` [2-methyl-1-phenylpropan-2-amine], the Ki in experiment [1] is 244 nM; in experiment [2] it was more than 10000 nM; in experiment [3] it was 1580 nM.

With `NCCc1c[nH]c2ccc(O)cc12` [[3H]-5-HT], the Ki in experiment [1] is 3010 nM; in experiment [3], 2700 nM.
